Patent US20110269758A1, “NAPHTHYRIDINONES AS PROTEIN KINASE INHIBITORS” (MERCK PATENT GMBH, priority 2008, published 2011)

What was measured:
[1] = tested on: human tumor types; details: diverse range of human tumor types; cited from earlier work
[2] = tested on: leukemia, colon and pancreatic tumors; details: variety of in vivo xenograft models, well-tolerated doses; cited from earlier work
[3] = biological target: T1, Aurora Kinase A (Homo sapiens, UniProt O14965); test: Biochemical enzyme assay for Aurora A activity (Caliper LC3000 / Desktop Profiler mobility shift); details: GST-Aurora A, 15 μM ATP, 90 min at 25° C.; LC3000 or Desktop Profiler; read-out: Aurora Kinase A IC50
T1 construct: full length Aurora A (1-403 amino acids); purchased Carna Biosciences 05-101
T1 sequence (O14965 1-403): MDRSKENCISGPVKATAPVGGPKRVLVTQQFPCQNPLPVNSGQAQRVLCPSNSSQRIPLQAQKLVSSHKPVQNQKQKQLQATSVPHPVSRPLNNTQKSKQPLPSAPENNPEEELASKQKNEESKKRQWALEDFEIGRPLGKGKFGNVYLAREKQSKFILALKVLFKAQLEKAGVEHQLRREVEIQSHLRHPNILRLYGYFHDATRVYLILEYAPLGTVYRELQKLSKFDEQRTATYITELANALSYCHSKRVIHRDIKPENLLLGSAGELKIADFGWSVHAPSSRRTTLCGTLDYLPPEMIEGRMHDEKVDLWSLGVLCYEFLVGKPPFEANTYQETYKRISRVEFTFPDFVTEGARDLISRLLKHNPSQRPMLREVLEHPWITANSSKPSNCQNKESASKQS
Protocol: (§1) The Aurora assays described here were performed on two Caliper Life Sciences systems, the LC3000 and the Desktop Profiler. These provide data on enzyme activity via measurement of the relative amounts of phosphorylated or unphosphorylated fluorescently labelled substrate peptide at the end of an enzymatic reaction. These different states of peptide are resolved by applying a potential difference across the sample. The presence of a charged phosphate group on the product (as opposed to the substrate) causes a different peptide mobility between the two peptides. This is visualized by excitation of a fluorescent label on the substrate and product peptides and represented as peaks within the analysis software.
In order to measure inhibitor activity of Aurora A inhibitors in the Caliper Life Sciences LC3000, a TTP Mosquito liquid handling instrument was used to place 0.25 μl of an appropriate concentration of inhibitor in 100% DMSO (for a dose response curve calculation) into each well of a 384-well plate.
The reaction was incubated for 90 min at 25° C., and then stopped by the addition of 70 μl of Stop buffer (100 mM HEPES pH 7.5, 0.015% Brij-35, 10 mM EDTA (Sigma, E7889)).
The plate was read on a Caliper LC 3000 in an Off-Chip mobility shift assay format, using the following parameters for a 12-sipper chip: screening pressure −1.8 psi, upstream voltage −2700, downstream voltage −1000. These conditions cause unphosphorylated substrate and phosphorylated product peptide to resolve as separate peaks allowing direct measurement of percentage of conversion of substrate to product.
(§2) The Desktop Profiler utilizes the same prinicipal as the LC 3000 for calculating percentage conversion of a substrate to product. Caliper Life Sciences provided proprietary flash frozen pre-made 384 well plates containing selected kinases. Each column in the 384 well plate contained a particular selected kinase. A second plate, the ‘substrate plate’ contained a mix of fluorescently labeled peptide substrate and ATP. These were arranged in columns so that transfer for substrate plate to enzyme plate provided the correct enzyme with the correct substrate/ATP concentration.
(§3) Compounds were added to a thawed enzyme plate in the desired format, in single concentrations. Reactions were initiated by transfer of the substrate/ATP mix from the substrate plate. The enzyme plate was incubated for 90 mins at 25° C. The reaction was stopped by addition of 70 μl of Stop Buffer (100 mM HEPES pH 7.5, 0.015% Brij-35, 10 mM EDTA (Sigma, E7889)).
Plates were read in a manner identical to that of the LC3000, and the ratio between substrate and product peaks provided the activity of the enzyme in that well.

[4] = biological target: Aurora Kinase B (Homo sapiens, UniProt Q96GD4); test: Biochemical enzyme assay for Aurora B activity (Caliper mobility shift); details: LC3000 or Desktop Profiler
Sequence of Aurora Kinase B (Q96GD4 whole entry): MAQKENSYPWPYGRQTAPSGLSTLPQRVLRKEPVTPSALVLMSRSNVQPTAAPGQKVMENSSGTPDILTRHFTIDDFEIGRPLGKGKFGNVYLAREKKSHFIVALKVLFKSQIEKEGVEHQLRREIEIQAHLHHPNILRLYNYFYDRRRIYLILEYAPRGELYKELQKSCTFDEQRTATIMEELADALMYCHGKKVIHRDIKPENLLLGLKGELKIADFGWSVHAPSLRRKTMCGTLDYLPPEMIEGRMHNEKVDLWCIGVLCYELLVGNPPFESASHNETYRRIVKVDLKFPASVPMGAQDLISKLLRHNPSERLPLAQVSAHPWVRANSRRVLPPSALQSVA
Protocol: as §1, §2, §3
Plates were read in a manner identical to that of the LC3000, and the ratio between substrate and product peaks provided the activity of the enzyme in that well. This was best represented by a plate heat map which colors each well by percent inhibition as compared to positive and negative controls (no inhibitors and no ATP respectively).

[5] = tested on: cyclin-dependent kinases (CDKs) and Aurora kinases; details: cited from earlier work
[6] = tested on: tumor cells of various origins; details: cited from earlier work

IC50 [3] [nM]	IC50 [4] [nM]	SMILES	also measured
		Cc1cc(Nc2cc(N3CCN(C)CC3)nc(Sc3ccc(NC(=O)C4CC4)cc3)n2)n[nH]1 [VX-680]	effect on cell-cycle progression and apoptosis [1]: blocks cell-cycle progression and induces apoptosis; inhibition of tumor growth [2]: profound inhibition of tumor growth
601 to 1000	601 to 1000	O=C(Nc1ccc(Nc2ccnc3[nH]c(=O)ccc23)cc1)c1ccccc1C(F)(F)F [Compound 37, 2-Trifluoromethyl-N-(4-(7-oxo-7,8-dihydro-1,8-naphthyridin-4-yl-amino)phenyl)benzamide]	
1 to 300	1 to 300	Cc1cc(=O)[nH]c2nccc(Nc3ccc(NC(=O)c4ccc(F)cc4C(F)(F)F)cc3)c12 [Compound 95, 4-Fluoro-N-[4-(5-methyl-7-oxo-7,8-dihydro-[1,8]naphthyridin-4-ylamino)-phenyl]-2 trifluoromethyl-benzamide]	
		Nc1nc(Nc2ccc(S(N)(=O)=O)cc2)nn1C(=O)c1c(F)cccc1F [JNJ-7706621]	inhibition of CDKs and Aurora kinases [5]: potent inhibition; proliferation of tumor cells [6]: selectively blocked proliferation
1 to 300	1 to 300	O=C(Nc1ccc(Nc2ccnc3[nH]c(=O)cc(OCC4CC4)c23)cc1)c1ccccc1 [Compound 93, N-[4-(5-Cyclopropylmethoxy-7-oxo-7,8-dihydro-[1,8]naphthyridin-4-ylamino)-phenyl]benzamide]	
1 to 300	1 to 300	Nc1ccc(NC(=O)c2c(F)cccc2F)cc1 [Compound 9, N-(4-Aminophenyl)-2,6-difluoro-benzamide]	
1 to 300	1 to 300	Nc1ccc(NC(=O)c2ccc(C(F)(F)F)cc2)cc1 [Compound 6, N-(4-Aminophenyl)-4-trifluoromethyl-benzamide]	
1 to 300	1 to 300	O=C(Nc1ccc(Nc2ccnc3[nH]c(=O)cc(O)c23)cc1)c1ccc(F)cc1C(F)(F)F [Compound 91, 4-Fluoro-N-[4-(5-hydroxy-7-oxo-7,8-dihydro-[1,8]naphthyridin-4-ylamino)-phenyl]-2 trifluoromethyl-benzamide]	
